The values below come from US20260308172A1, “TRICYCLIC COMPOUNDS FOR TREATMENT OF BACTERIAL INFECTIONS” (priority 2023, published 2026).

Data set [1] in a line: Human Microsome Stability Assay. The class given is in vitro ADME. To be noted: 1 μM compound, 0.5 mg/mL liver microsomal protein, 1 mM NADPH, pH 7.4, 37° C., 0-30 minutes; for CLint scaled at 1 µM: human, liver microsomes, read-out: Clearance of Human microsome. The method, then:
The human microsomal stability assay is used for early assessment of metabolic stability of compounds of present invention in human liver microsomes. Human liver microsomes (Cat. NO.: 452117, Corning, USA) were pre-incubated with test compound for 10 minutes at 37° C. in 100 mM potassium phosphate buffer, pH 7.4. The reactions were initiated by adding NADPH regenerating system. The final incubation mixtures contained 1 μM compound, 0.5 mg/mL liver microsomal protein, 1 mM MgCl2 and 1 mM NADPH in 100 mM potassium phosphate buffer, pH 7.4. After incubation times of 0, 3, 6, 9, 15 and 30 minutes at 37° C., 300 μL of cold acetonitrile (including internal standard) was added to 100 μL incubation mixture to terminate the reaction. Following precipitation and centrifugation, the amount of compound remaining in the samples were determined by LC-MS/MS. Controls of no NADPH regenerating system at zero and 30 minutes were also prepared and analyzed.
Background: Liver microsomes are a subcellular fraction often used to study metabolism.

For data set [2], the system named is Escherichia coli ATCC 25922. Description: Minimal Inhibitory Concentration (MIC) assay, Escherichia coli ATCC 25922. The class given is cell-based. To be noted: ATCC25922, 20 h, read-out: MIC Escherichia coli ATCC25922. The method, then:
(§1) The antibacterial activity of the compounds of the present invention was evaluated against the commonly used quality control strain Escherichia coli ATCC 25922 and the rifampin-resistant mutant strain Klebsiella pneumonia ATCC 43816. Both were originally derived from human clinical samples and are available from ATCC (American Type Culture Collection). The in vitro potency of compounds to inhibit Escherichia coli (ATCC 25922) and Klebsiella pneumonia (ATCC 43816) growth was assessed by the MIC (Minimal Inhibitory Concentration) broth dilution method. Specifically compound dilutions were prepared from 10 mM DMSO stock solutions as follows: i) serial 2-fold dilution in 20 μL DMSO were prepared in a master plate (Greiner, Cat No: 651201), ii) 180 μL sterile distilled water was added to each aliquot and iii) 10 μL diluted compounds were transferred into a new assay plate (Costar, 3599).
(§2) Vials of each test microorganisms were maintained frozen in the vapor phase of a liquid nitrogen freezer. Single-use frozen vials of the two strains Escherichia coli ATCC 25922 (KWIKSTIK, 0335K) and Klebsiella pneumonia ATCC 43816, with predetermined CFU/mL, were taken out from the freezer, thawed at room temperature, and diluted in Cation-Adjusted Mueller Hinton Broth (CAMHB) to achieve a final inoculum of 5×10^5 CFU/mL. 90 μL bacteria containing broth was dispensed to the assay plate containing the pre-dispensed compound dilutions and mixed by pipetting 5 times.
(§3) Then the assay plates were incubated for 20 hours at 35° C. in ambient air. Following incubation, the MIC (μg/mL), the lowest concentration of drug that inhibits visible growth of the microorganism was read with the help of a magnification mirror and recorded.

For data set [3], the system named is Klebsiella pneumonia ATCC 43816. Description: Minimal Inhibitory Concentration (MIC) assay, Klebsiella pneumonia ATCC 43816. To be noted: Klebsiella pneumoniae, ATCC43816, 20 h, read-out: MIC Klebsiella pneumoniae ATCC43816. The format is cell-based. The method, then: as §1, §2, §3

The structures appear in SMILES notation. In brackets after ≈: the same amount, converted by molar mass.

The MIC is the smallest concentration in the dilution series that meets the test's criterion for growth inhibition.

As to `Cc1cc(C(F)(F)F)nc(N2CCN(S(=O)(=O)c3ccc4c(c3)OC[C@H]3[C@H](CN)OC(=O)N43)CC2)n1` (relative stereo) [Example 002], in data set [1], the CLint scaled at 1 µM came out at 10 mL/min/kg. Further, the MIC in data set [2] is 0.66 µg/mL (≈ 1.25 µM); in data set [3], 1.32 µg/mL (≈ 2.5 µM).

As for `Cc1cc(C(F)(F)F)nc(N2CCN(S(=O)(=O)c3ccc4c(c3)OC[C@H]3[C@@H](CN)OC(=O)N43)CC2)n1` (relative stereo) [Example 006], the CLint scaled at 1 µM in data set [1] was found to be 12.5 mL/min/kg. Further, the MIC in data set [2] was determined as 0.44 µg/mL (≈ 0.833 µM); in data set [3] it was 0.88 µg/mL (≈ 1.67 µM).

For the compound `NC[C@H]1OC(=O)N2c3ccc(S(=O)(=O)N4CCN(c5cc(C(F)(F)F)cc(Cl)n5)CC4)cc3OC[C@@H]12` (relative stereo) [Example 007], in data set [1], the CLint scaled at 1 µM is 9.6 mL/min/kg. Further, the minimum inhibitory concentration (MIC) in data set [2] was 0.46 µg/mL (≈ 0.84 µM); in data set [3] it was 0.91 µg/mL (≈ 1.66 µM).

Regarding `NC[C@H]1OC(=O)N2c3ccc(S(=O)(=O)N4CCN(c5cc(C(F)(F)C6CCCNC6)cc(Cl)n5)CC4)cc3OC[C@H]12` (relative stereo) [Example 009], the “Clearance of Human microsome” value in data set [1] was 6.2 mL/min/kg. Further, the minimal inhibitory concentration (MIC) in data set [2] and in data set [3] was 0.66 µg/mL (≈ 1.08 µM) throughout.

With `O=C1O[C@H](CO)[C@@H]2COc3cc(S(=O)(=O)N4CCN(c5cc(C(F)(F)C6CCCNC6)cc(Cl)n5)CC4)ccc3N12` (relative stereo) [Example 033], the CLint scaled at 1 µM in data set [1] came out at 13.6 mL/min/kg. Also, the results for the MIC in data set [2] and in data set [3] were 1 µg/mL (≈ 1.63 µM) and 1.55 µg/mL (≈ 2.52 µM), respectively.

Turning to `NCCCNC(=O)[C@H]1CC[C@H](C(F)(F)c2cc(Cl)nc(N3CCN(S(=O)(=O)c4ccc5c(c4)OC[C@@H]4[C@H](CN)OC(=O)N54)CC3)c2)CC1` (stereo in doubt) [Example 047, 4-[[2-[4-[[cis-3-(aminomethyl)-1-oxo-3a,4-dihydro-3H-oxazolo[4,3-c][1,4]benzoxazin-7-yl]sulfonyl]piperazin-1-yl]-6-chloro-4-pyridyl]-difluoro-methyl]-N-(3-aminopropyl)cyclohexanecarboxamide], the CLint scaled at 1 µM in data set [1] came out at 7 mL/min/kg. The MIC in data set [2] is 0.58 µg/mL (≈ 0.814 µM); in data set [3] it was 0.59 µg/mL (≈ 0.828 µM).

Regarding `C[N+]1(CCN)CCC[C@H]1C(=O)N[C@H]1CC[C@H](C(F)(F)c2cc(Cl)nc(N3CCN(S(=O)(=O)c4ccc5c(c4)OC[C@@H]4[C@H](CO)OC(=O)N54)CC3)c2)CC1` (stereo in doubt) [Example 062, (2S)-1-(2-aminoethyl)-N-[4-[[2-chloro-6-[4-[[(3R,3aR)-3-(hydroxymethyl)-1-oxo-3a,4-dihydro-3H-oxazolo[4,3-c][1,4]benzoxazin-7-yl]sulfonyl]piperazin-1-yl]-4-pyridyl]-difluoro-methyl]cyclohexyl]-1-methyl-pyrrolidin-1-ium-2-carboxamide;chloride], the “Clearance of Human microsome” value in data set [1] is listed as 6.2 mL/min/kg. For the same compound, the MIC in data set [2] and in data set [3] was 0.67 µg/mL throughout.

On to `Cc1cc(C(F)(F)F)nc(N2CCN(S(=O)(=O)c3ccc4c(c3)OC[C@H]3[C@@H](CN5CC(N)C5)OC(=O)N43)CC2)n1` [Example 025, (3R,3aS)-3-[(3-aminoazetidin-1-yl)methyl]-7-[4-[4-methyl-6-(trifluoromethyl)pyrimidin-2-yl]piperazin-1-yl]sulfonyl-3a,4-dihydro-3H-oxazolo[4,3-c][1,4]benzoxazin-1-one], for which, in data set [1], the CLint scaled at 1 µM was 12.2 mL/min/kg. For the same compound, the MIC came out at 0.91 µg/mL (≈ 1.56 µM) in data set [2] and 1.82 µg/mL (≈ 3.12 µM) in data set [3].

As for `Cc1cc(C(F)(F)F)nc(N2CCN(S(=O)(=O)c3ccc4c(c3)OC[C@H]3[C@@H](CN5CC(CN)C5)OC(=O)N43)CC2)n1` [Example 026, (3R,3aS)-3-[[3-(aminomethyl)azetidin-1-yl]methyl]-7-[4-[4-methyl-6-(trifluoromethyl)pyrimidin-2-yl]piperazin-1-yl]sulfonyl-3a,4-dihydro-3H-oxazolo[4,3-c][1,4]benzoxazin-1-one], the CLint scaled at 1 µM in data set [1] came to 10.8 mL/min/kg. Moreover, the figures for the MIC in data set [2] and in data set [3] were 1.1 µg/mL (≈ 1.84 µM) and 1.67 µg/mL (≈ 2.79 µM), respectively.

Regarding `O=C1O[C@@H](CO)[C@H]2COc3cc(S(=O)(=O)N4CCN(c5cc(C(F)(F)C6CCNCC6)cc(Cl)n5)CC4)ccc3N12` [Example 028, (3R,3aR)-7-[4-[6-chloro-4-[difluoro(4-piperidyl)methyl]-2-pyridyl]piperazin-1-yl]sulfonyl-3-(hydroxymethyl)-3a,4-dihydro-3H-oxazolo[4,3-c][1,4]benzoxazin-1-one], the CLint scaled at 1 µM in data set [1] is 10.5 mL/min/kg. Moreover, the minimum inhibitory concentration (MIC) in data set [2] and in data set [3] was 0.57 µg/mL (≈ 0.928 µM) in each case.

Regarding `O=C1O[C@H](CO)[C@@H]2COc3cc(S(=O)(=O)N4CCN(c5cc(C(F)(F)C6CCNCC6)cc(Cl)n5)CC4)ccc3N12` [Example 029, (3S,3aS)-7-[4-[6-chloro-4-[difluoro(4-piperidyl)methyl]-2-pyridyl]piperazin-1-yl]sulfonyl-3-(hydroxymethyl)-3a,4-dihydro-3H-oxazolo[4,3-c][1,4]benzoxazin-1-one], in data set [1], the CLint scaled at 1 µM amounted to 11.6 mL/min/kg. The minimum inhibitory concentration (MIC) in data set [2] worked out at 1.1 µg/mL (≈ 1.79 µM); in data set [3], 1.14 µg/mL (≈ 1.85 µM).

`O=C1O[C@@H](CO)[C@H]2COc3cc(S(=O)(=O)N4CCN(c5cc(C(F)(F)C6C7CNCC76)cc(Cl)n5)CC4)ccc3N12` (stereo partly drawn) [Example 034, (3R,3aR)-7-[4-[4-[3-azabicyclo[3.1.0]hexan-6-yl(difluoro)methyl]-6-chloro-2-pyridyl]piperazin-1-yl]sulfonyl-3-(hydroxymethyl)-3a,4-dihydro-3H-oxazolo[4,3-c][1,4]benzoxazin-1-one]: in data set [1], the CLint scaled at 1 µM came out at 12.7 mL/min/kg. The MIC stood at 0.28 µg/mL (≈ 0.457 µM) in data set [2] and 0.57 µg/mL (≈ 0.931 µM) in data set [3].

For `O=C1O[C@@H](CO)[C@H]2COc3cc(S(=O)(=O)N4CCN(c5cc(C(F)(F)C6CNC6)cc(Cl)n5)CC4)ccc3N12` [Example 035, (3R,3aR)-7-[4-[4-[azetidin-3-yl(difluoro)methyl]-6-chloro-2-pyridyl]piperazin-1-yl]sulfonyl-3-(hydroxymethyl)-3a,4-dihydro-3H-oxazolo[4,3-c][1,4]benzoxazin-1-one], the CLint scaled at 1 µM in data set [1] came to 10.9 mL/min/kg. Moreover, the minimum inhibitory concentration (MIC) in data set [2] was 2.2 µg/mL (≈ 3.75 µM); in data set [3], 2.19 µg/mL (≈ 3.74 µM).

`C[N@+]1(CC(N)=O)CCC[C@H]1C(=O)N[C@H]1CC[C@H](C(F)(F)c2cc(Cl)nc(N3CCN(S(=O)(=O)c4ccc5c(c4)OC[C@@H]4[C@H](CO)OC(=O)N54)CC3)c2)CC1` [Example 059, (1R,2S)—N-[4-[[2-[4-[[(3R,3aR)-3-(hydroxymethyl)-1-oxo-3a,4-dihydro-3H-oxazolo[4,3-c][1,4]benzoxazin-7-yl]sulfonyl]piperazin-1-yl]-6-chloro-4-pyridyl]-difluoro-methyl]cyclohexyl]-1-(2-amino-2-oxo-ethyl)-1-methyl-pyrrolidin-1-ium-2-carboxamide;chloride]: the MIC in data set [2] and in data set [3] was 0.66 µg/mL throughout.

Turning to `NCC[N+]1(CCNC(=O)[C@H]2CC[C@H](C(F)(F)c3cc(Cl)nc(N4CCN(S(=O)(=O)c5ccc6c(c5)OC[C@H]5[C@H](CO)OC(=O)N65)CC4)c3)CC2)CCCC1.[Cl-]` [Example 064, 4-[[2-[4-[[(3R,3aS)-3-(hydroxymethyl)-1-oxo-3a,4-dihydro-3H-oxazolo[4,3-c][1,4]benzoxazin-7-yl]sulfonyl]piperazin-1-yl]-6-chloro-4-pyridyl]-difluoro-methyl]-N-[2-[1-(2-aminoethyl)pyrrolidin-1-ium-1-yl]ethyl]cyclohexanecarboxamide; chloride], the MIC in data set [2] turned out to be 2.8 µg/mL; in data set [3], 2.85 µg/mL.
